Laboratory results taken from patent publication US4466963A, “Pharmaceutical compositions” (John Wyeth & Brother Limited, priority 1982, dated 1984).

Columns and labels:
[1] = brain concentration of meptazinol after administration of 3H meptazinol alone or with ibuprofen; type: in vivo, mice; details: for brain concentration of meptazinol: meptazinol 40 mg/kg po, or meptazinol + ibuprofen 40 + 240
Method: In a further experiment the brain concentration of meptazinol was measured after administration of meptazinol alone or a combination of ibuprofen and meptazinol. Groups of mice were given meptazinol (40 mg/kg) alone or meptazinol+ibuprofen (40+240 mg/kg) po containing 25 μCi/mouse of^3 H meptazinol. Six mice from each group were decapitated at 30 min intervals after dosing. The brain of each animal was removed and after the removal of the cerebellum, pons and medulla the remainder was homogenised in 10 ml ice cold Tris buffer. This was immediately centrifuged at 20,000 rpm for 5 min then a single 1 ml aliquot of the supernatant was taken for counting.

[2] = rats given 3H meptazinol; previous studies; cited from earlier work
[3] = system: mice pretreated with carrageenin (hot-plate response); assay: hot-plate response latency (brass hot-plate, 55° C.) of mice pretreated with carrageenin; type: in vivo; details: for Increase in latency (sec) cf. pre-dose control / Latency (sec) pre-dose control: ibuprofen 240, meptazinol 40, combination 240 + 40 mg/kg po; for Latency (sec) pre-dose control: pre-dose baseline of the group, SEM on the line below
Method: For example in one method used to measure the antinociceptive effects of meptazinol, ibuprofen and combinations of the two drugs, groups of 9 mice were given 0.025 ml of 2% carrageenin (in saline) sc into the plantar surface of both hind feet 3.0 hours before treatment. The latency to a distinct response following placement of the mice on a brass hot-plate (55° C.) was measured immediately prior to dosing with vehicle (0.5% hydroxypropyl-methylcellulose in water) or with drug.
The antinociceptive response at each recording time (t) was defined as the reaction time of the mouse at time t minus the reaction time at t=0 (immediately prior to dosing).
The results after dosing with vehicle, ibuprofen (240 mg/kg), meptazinol (40 mg/kg) and a combination of ibuprofen (240 mg/kg)+meptazinol (40 mg/kg) are given in Table 1 below: […]

[4] = system: normal mice (tail flick); assay: tail flick latency (tail immersion in water at 50° C.); type: in vivo
Method: In a further experiment groups of 10 normal mice were given meptazinol (40 mg/kg), ibuprofen (240 mg/kg), a mixture containing these doses of meptazinol and ibuprofen or the requisite volume of vehicle po immediately after measuring the latency to a distinct tail flick (following tail immersion in water at 50° C.). Tail flick latencies were measured again at 30 min intervals post dosing. As the mean pre-dose latencies of mice subjected to the tail immersion procedure were so similar to one another comparisons of the actual latencies at each recording time were made (Student's "t" test).

[5] = system: rats (gastric erosion); details: well known for non-steroidal anti-inflammatory agents; cited from earlier work
[6] = 30 min post dosing, *p < .02 cf vehicle, x p < .02 cf meptazinol alone
[7] = 60 min post dosing, *p < .02 cf vehicle
[8] = 90 min post dosing, x p < .02 cf meptazinol alone
[9] = 30 min post dosing, ibuprofen 240, meptazinol 40, combination 40 + 240 mg/kg po, x p < .05 cf meptazinol alone
[10] = 60 min post dosing, ibuprofen 240, meptazinol 40, combination 40 + 240 mg/kg po, xx p < .01 cf meptazinol alone
[11] = 90 min post dosing, ibuprofen 240, meptazinol 40, combination 40 + 240 mg/kg po
[12] = time 0 (pre-dose), ibuprofen 240, meptazinol 40, combination 40 + 240 mg/kg po, SEM on the line below

| Compound | Increase in latency (sec) cf. pre-dose control [3, 6] [s] | Increase in latency (sec) cf. pre-dose control [3, 7] [s] | Increase in latency (sec) cf. pre-dose control [3, 8] [s] | Latency (sec) pre-dose control [3] [s] | Latency to a distinct tail flick [4, 9] [s] | Latency to a distinct tail flick [4, 10] [s] | Latency to a distinct tail flick [4, 11] [s] | Latency to a distinct tail flick [4, 12] [s] | other results |
| --- | --- | --- | --- | --- | --- | --- | --- | --- | --- |
| CCC1(c2cccc(O)c2)CCCCN(C)C1 (stereo not drawn) [Meptazinol, m-(3-ethylhexahydro-1-methyl[1H]azepin-3-yl) phenol] | 4.76 | 3.00 | 1.76 | 6.41 | 4.24 | 4.85 | 4.80 | 3.43 | brain concentration of meptazinol ([1]; 30 min post treatment, **p < .01 cf meptazinol alone, (SEM not stated) on the line below): 18.4 Counts × 1000/min/g brain; brain concentration of meptazinol ([1]; 60 min post treatment): 12.0 Counts × 1000/min/g brain; brain concentration of meptazinol ([1]; 90 min post treatment, *p < .05 cf meptazinol alone): 7.4 Counts × 1000/min/g brain; brain concentration of meptazinol ([1]; 120 min post treatment, **p < .01 cf meptazinol alone): 4.7 Counts × 1000/min/g brain; concentration of tritium in the brain cf. same dose of meptazinol with 240 mg/kg ibuprofen ([1]; meptazinol 40 mg/kg, 30, 60 and 90 min post dosing): approximately half; tritium in the brain in the form of meptazinol [2]: virtually all; Latency to a distinct tail flick ([4]; 30 min post dosing, meptazinol 80 mg/kg po, ***p < .0001 cf vehicle control): 6.95 s; Latency to a distinct tail flick ([4]; 60 min post dosing, meptazinol 80 mg/kg po, **p < .01): 6.75 s; Latency to a distinct tail flick ([4]; 90 min post dosing, meptazinol 80 mg/kg po, ***p < .0001 cf vehicle control): 6.37 s; antinociceptive response (tail flick) ([4]; meptazinol 40 mg/kg alone): did induce a significant antinociceptive response; Latency to a distinct tail flick ([4]; time 0 (pre-dose), meptazinol 80 mg/kg po): 3.54 s |
| CC(C)Cc1ccc(C(C)C(=O)O)cc1 (stereo not drawn) [Ibuprofen, 2-(4-isobutylphenyl)propionic acid] | -0.72 | -1.56 | -1.30 | 7.16 | 2.75 | 3.04 | 3.94 | 3.43 | gastric damage [5]: induce gastric damage; antinociceptive response ([3]; ibuprofen 240 mg/kg alone): did not produce any antinociceptive response; effect on the tail flick latency ([4]; ibuprofen alone, 240 mg/kg po): did not significantly affect the tail flick latency |
